Results on two compounds are retold here after US20230279001A1, “IMIDAZO[1,2-A]PYRIDINE COMPOUNDS FOR THE TREATMENT OF AUTOIMMUNE DISEASE” (Hoffmann-La Roche Inc., priority 2020, published 2023).

The nature of data set [1]: Single dose pharmacokinetics (PK) study in male Wister-Han rats. It is filed as in vivo, rat. The procedure:
Pharmacokinetic properties of selected compounds were assessed by single dose PK studies in Male Wister-Han Rats (vendor: Beijing Vital River Laboratory Animal Technology Co., Ltd). Briefly, two groups of animals were administered a single dose of respective compound intravenously (IV, bolus) at 2 mg/kg or orally (PO, by gavage) at 10 mg/kg. Blood samples (approximately 150 μL) were collected via Jugular vein at 5 min (only for IV), 15 min, 30 min, 1 h, 2 h, 4 h, 7 h and 24 h post-dose. Blood samples were placed into tubes containing EDTA-K2 anticoagulant and centrifuged at 3000 rpm for 15 min at 4° C. to separate plasma from the samples. After centrifugation, the resulting plasma was transferred to clean tubes for bioanalysis with LC/MS/MS. The pharmacokinetic parameters were calculated using non-compartmental analysis. The volume of distribution (VSS), half-life (T1/2) and clearance (CL) were obtained based on the plasma concentration-time curve after IV dose. The peak concentration (Cmax) was recorded directly from experimental observations after PO dose. The area under the plasma concentration-time curve (AUC0-last) was calculated using the linear trapezoidal rule up to the last detectable concentration. The bioavailability (F) was calculated based on the dose normalized AUC0-last after IV and PO dose.
The VSS of a drug represents the degree to which a drug is distributed in body tissue rather than the plasma. VSS is directly proportional with the amount of drug distributed into tissue. A higher VSS indicates a greater amount of tissue distribution.

Data set [2] has as its system Balb/c 3T3 mouse fibroblasts. The data set is described as follows: 3T3 in vitro phototoxicity assay (Neutral Red uptake). It is filed as cell-based. To be noted: 3T3 fibroblasts. The text has this: Phototoxicity is defined as a toxic response that is elicited after the first exposure of the skin to certain chemicals and subsequent exposure to light, or that is induced similarly by skin irradiation after systemic administration of a chemical substance. The assay used in this study is designed to detect the phototoxic potential of a chemical by using a simple in vitro cytotoxicity assay with Balb/c 3T3 mouse fibroblasts. The principle of this test is a comparison of the cytotoxicity of a chemical when tested with and without exposure to a non-toxic dose of UVA-light. Cytotoxicity is expressed as a dose dependent reduction of the growth rate of cells as determined by uptake of the vital dye Neutral Red one day after treatment. […]
For this study the Neutral Red uptake (NRU) assay of Borenfreund and Puerner (Borenfreund, E, Puerner J A. Toxicity determined in vitro by morphological alterations and Neutral Red absorption. Toxicology Lett. 1985; 24:119-124) modified according to INVITTOX protocol No 78 (ERGATT/FRAME data bank of in vitro techniques in toxicology. INVITTOX PROTOCOL No 78. 3T3 NRU Phototoxicity Assay. March 1994) has been adapted to examine a possible phototoxic potential of the test item. […]
For each test item the microtiter plates were prepared according to Table 6. […] UV flux was measured with a UV-meter (Dr. Gröbel RM21). […]

In brackets after ≈: the same amount, converted by molar mass. Where two headings read alike, the source gives them in different places.

Turning to `Cc1cc(-c2ccc(N3CCC(N4CCNCC4)CC3)nc2C(F)F)cn2ccnc12` [Example 10, 6-[2-(difluoromethyl)-6-(4-piperazin-1-yl-1-piperidyl)-3-pyridyl]-8-methyl-imidazo[1,2-a]pyridine], in data set [1] (dose normalized AUC0-last after IV 2 mg/kg and PO 10 mg/kg), the F is 69%. The AUC(0-t) in data set [1] (rat, IV 2 mg/kg, plasma, read-out: IV AUC0-last) worked out at 1060 ng·h/mL. The same compound displayed a Cmax in data set [1] (rat, PO 10 mg/kg, plasma) of 257 ng/mL. Also, the AUC(0-t) in data set [1] (rat, PO 10 mg/kg, plasma, read-out: PO AUC0-last) was determined as 3640 ng·h/mL. Also, in data set [1] (rat, plasma, IV 2 mg/kg), the clearance is 28 mL/min/kg and the half-life is 8.6 h. The Vd in data set [1] (rat, plasma, IV 2 mg/kg, read-out: Vss) amounted to 15 L/kg.

Compound `CCc1nc(N2CCC(N3CC4(CNCCO4)C3)CC2)ccc1-c1cc(C)c2nccn2c1` [Example 14, 2-[1-[6-ethyl-5-(8-methylimidazo[1,2-a]pyridin-6-yl)-2-pyridyl]-4-piperidyl]-5-oxa-2,8-diazaspiro[3.5]nonane] gave a Phototoxicity factor in data set [2] (Factor=IC50(−UV)/IC50(+UV)) of 1. This compound also gave an IC50 in data set [2] (Mus musculus, BALB/c3T3, light or radiation study, approx. 5 J/cm^2 UVA light, Neutral Red uptake) of 100 µg/mL (≈ 224 µM).

Broadly, the Cmax is the maximum level reached in the sampled fluid or tissue. Broadly, the clearance is the rate of elimination divided by the concentration. A higher clearance goes with efficient removal. As a reminder, the half-life is how long it takes for the measured level to halve. A lower half-life goes with rapid decline. One may read the IC50 as the concentration needed to halve the response being measured. A low value points to higher potency.
